Assays:
[1] = test system: human glaucoma patients with elevated IOP, and normal controls; conditions: 50 mg oral dose; cited from earlier work
[2] = biological target: AT1R; parameters: method as in PMID 20603272; conditions: cited from earlier work
[3] = test system: TGFβ signaling (pSmad2); assay: pSmad2 immunohistochemistry of the retina (RGC layer) as read-out of TGFβ signaling; type: in vivo, mouse; conditions: 2 g/kg in chow, 7 days, 3 days
Method: Eyes were enucleated and post-fixed in PBS/PFA for an additional 24–48 h and embedded in paraffin. Five micron-thick sections were deparaffinized, incubated at 90°C for 30 mins in 10 mM sodium citrate buffer, pH 6.0 for epitope retrieval and then incubated for 2 h at room temperature in blocking solution (PBS/5% normal donkey serum/1% BSA/0.1% Tween-20). Sections were then incubated with rabbit polyclonal antibody to pSmad2 (1:100, Thermo Fisher Scientific, MA, USA) in blocking solution overnight at 4°C in a humidified chamber. Following three 5 min washes in wash solution (PBS/0.1% Tween-20), sections were incubated in AlexaFluor-546 labeled donkey anti-rabbit IgG diluted 1:1000 in blocking solution for 2 h at room temperature in a dark humidified chamber. Sections were washed again three times for 5 mins each in wash solution and cover-slipped with Prolong Gold Antifade with DAPI mounting medium (Thermo Fisher Scientific). Sections were imaged using a Nikon AZ 100M upright, wide-field microscope using a 5x Plan Fluor/0.5 NA air objective and captured with a Nikon DS-Ri1 color camera (Nikon Instruments, Melville, NY, USA). Retinal images were acquired adjacent to the optic nerve head. Immunostaining and imaging experiments using the right eye of each mouse were carried out in batches of sections that included samples from two vehicle-fed mice and two samples each from losartan, irbesartan and telmisartan-fed mice using identical image acquisition parameters within each batch. Immunostaining and imaging experiments were carried out twice for each batch of samples. Mean fluorescence intensity of pSmad2 immunofluorescence was quantified using FIJI (ImageJ) biological image analysis package. Background-subtracted mean fluorescence intensity of the RGC layer was determined by subtracting the mean background intensity within the adjacent inner plexiform layer from the mean fluorescence intensity within a mask drawn around the RGC layer. Normalized background-subtracted mean fluorescence intensity within each batch of samples was determined by dividing the background-subtracted mean fluorescence intensity of each sample by the average of the background-subtracted mean fluorescence intensities of the two vehicle-fed control samples. For each mouse, normalized background-subtracted mean fluorescence intensity was determined as the average of duplicate experiments and is presented as normalized mean fluorescence.

[4] = test system: rabbit eyes with induced IOP elevation; parameters: method as in PMID 10942157; conditions: eye drops of 0.1% losartan in saline; cited from earlier work
[5] = test system: CD1 mice; conditions: cited from earlier work
[6] = test system: C57BL/6J mice; assay: Systolic BP by tail-cuff method in ARB-treated mice; type: in vivo, mouse; conditions: 2 g drug/kg chow, day 3; p < 10^-4
Method: BP was measured by the tail-cuff method (BP 2000 Blood Pressure Analysis System, Visitech Systems, Apex, NC, USA) according to manufacturer recommendations and as previously described by an operator blinded to the treatment status of the mice. In brief, mice were restrained and their tail placed through an inflatable tail cuff held in place by adhesive tape. […] Mice were conditioned to the system prior to experimental measurements by being subjected to the full recording procedure daily for several days. Acclimation and BP measurements were performed between 9:00 and 11:00 a.m. Since diastolic measurements are inherently inaccurate with this method, only systolic BP is reported here. […] Sample sizes were not pre-determined by statistical methods, but are similar to or exceed numbers typical of similar experiments. The IOP changes of treated mice relative to the IOP changes of normal chow fed mice were presented with mean and 95% confidence interval based on t-statistics. A linear regression model for BP change from baseline was used to study effects of ARBs on BP, adjusting for baseline BP. For comparing IOP in groups of mice untreated or treated with ARBs for 3 and 7 days, a mixed effects model that included baseline IOP, left versus right eye, time of measurement and interaction between time and drug with random effects of intercept and slope within individual mice was used, adjusting for correlation between left and right eye within the same mouse, as well as repeated measurements over time. A one-way ANOVA was used for comparing chow pSmad2 fluorescence of mice untreated or treated with ARBs. The models for BP, IOP, and pSmad2 fluorescence were followed by Dunnett’s method for multiple comparisons correction. Differences in the change in IOP for each drug, relative to change in IOP of normal-fed control were evaluated at day 3 and day 7 of treatment, and differences in the rate of change in IOP were evaluated as the slope of the line defined by relative change at days 3 and 7. […]

[7] = test system: C57BL/6J mice; assay: IOP measurement with Tonolab rebound tonometer in ARB-treated mice; type: in vivo, mouse; conditions: for Change in IOP compared to normal chow control / Rate of IOP reduction compared to control / Average reduction of the median IOP: 2 g/kg in chow; for Change in IOP compared to normal chow control: after 3 and 7 days of treatment; for Rate of IOP reduction compared to control: slope between days 3 and 7; for Median IOP at day 0: before start of chow treatment, by treatment group; for Average reduction of the median IOP: compared to day 0
Method: IOP of mice anesthetized with 2.5% isoflurane in oxygen delivered at 1.5 L/min by an inhalation anesthesia system (Vet Equip, Livermore, CA, USA) was measured using a Tonolab rebound tonometer (Icare, Vantaa, Finland) following manufacturer’s recommendations by an operator blinded to the treatment status of the mice. Measurements were performed within 3 mins of immobilization to minimize isoflurane-induced IOP changes and at the same time of day (1:00–3:00 p.m.) to avoid diurnal variation.
Sample sizes were not pre-determined by statistical methods, but are similar to or exceed numbers typical of similar experiments. The IOP changes of treated mice relative to the IOP changes of normal chow fed mice were presented with mean and 95% confidence interval based on t-statistics. A linear regression model for BP change from baseline was used to study effects of ARBs on BP, adjusting for baseline BP. For comparing IOP in groups of mice untreated or treated with ARBs for 3 and 7 days, a mixed effects model that included baseline IOP, left versus right eye, time of measurement and interaction between time and drug with random effects of intercept and slope within individual mice was used, adjusting for correlation between left and right eye within the same mouse, as well as repeated measurements over time. A one-way ANOVA was used for comparing chow pSmad2 fluorescence of mice untreated or treated with ARBs. The models for BP, IOP, and pSmad2 fluorescence were followed by Dunnett’s method for multiple comparisons correction. Differences in the change in IOP for each drug, relative to change in IOP of normal-fed control were evaluated at day 3 and day 7 of treatment, and differences in the rate of change in IOP were evaluated as the slope of the line defined by relative change at days 3 and 7. Corrected p-values < 0.05 were considered significant. Linear regression and mixed effect model analysis was performed with R 3.4.1 (R Core Team. R: A language and environment for statistical computing. R Foundation for Statistical Computing, Vienna, Austria. URL http://www.R-project.org/, 2013). All other statistical analysis was performed using GraphPad Prism version 7.00 for Windows software (GraphPad Software, La Jolla, CA, USA).

[8] = Solubilization in unbuffered water; type: physicochemical; conditions: attempt to solubilize for drinking water delivery
[9] = test system: rat model with IOP elevation; parameters: method as in PMID 19608537; conditions: oral; cited from earlier work
[10] = test system: mouse model of normotensive glaucoma; parameters: method as in PMID 25032856; conditions: cited from earlier work
[11] = test system: rabbits with experimental and inherited elevated IOP; parameters: method as in PMID 11840352; conditions: cited from earlier work
[12] = test system: monkeys with laser-induced IOP elevation; parameters: method as in PMID 15862169; conditions: cited from earlier work
[13] = parameters: method as in PMID 23487168; conditions: cited from earlier work

| Solubility in unbuffered water [8] | Structure (SMILES) | Kd [2] [nM] | Effect on pSmad2 fluorescence of the RGC layer [3] | Systolic BP compared to mice fed normal chow [6] | Change in IOP compared to normal chow control [7] | Rate of IOP reduction compared to control [7] | Median IOP at day 0 [7] | Average reduction of the median IOP [7] [%] | other results |
| --- | --- | --- | --- | --- | --- | --- | --- | --- | --- |
|  | CCCCc1nc(Cl)c(CO)n1Cc1ccc(-c2ccccc2-c2nn[nH]n2)cc1 [losartan, Losartan potassium] | ~10 | no significant effect | significantly lower BP | did not significantly lower IOP | no significant effect | 16.9 |  | Mean reduction of IOP [1]: ≤ 16%; Effect on IOP [4]: IOP-lowering effects; Effect on IOP ([5]; 0.6 g/L in drinking water, normotensive eyes or eyes with microbead-induced elevated IOP): no effect on IOP; Effect on RGCs ([5]; oral via drinking water, eyes with elevated IOP induced by microbead injection): neuroprotective effect for RGCs; IOP after losartan treatment ([7]; 1.2 g/L losartan in drinking water, 3 days, 10 female C57BL/6 mice 1 year of age, right eye, mean +/-SD, p = 0.4): 15.4 +/- 1.9 mmHg; Effect on IOP ([7]; 1.2 g/L losartan in drinking water, 3 days, normal mice): did not affect IOP; IOP before losartan treatment (baseline) ([7]; 1.2 g/L losartan in drinking water, 10 female C57BL/6 mice 1 year of age, right eye, mean +/-SD): 14.8 +/-1.4 mmHg |
| readily precipitated out of solution | CCCCC1=NC2(CCCC2)C(=O)N1Cc1ccc(-c2ccccc2-c2nnn[nH]2)cc1 [irbesartan] | ~2 | no significant effect | significantly lower BP | significant decreases in IOP | significantly greater than control | 17.0 | 15.4 |  |
|  | CCOc1nc2cccc(C(=O)O)c2n1Cc1ccc(-c2ccccc2-c2nnn[nH]2)cc1 [candesartan] |  |  |  |  |  |  |  | Effect on IOP [9]: did not affect IOP; Effect on RGC loss [9]: reduced RGC loss; Effect on IOP ([10]; 10 mg/kg/day by oral gavage): no effect on IOP; Effect on RGCs and inner retina ([10]; orally administered): reduced loss of RGCs and thinning of the inner retina |
|  | CCCc1nc(C(C)(C)O)c(C(=O)O)n1Cc1ccc(-c2ccccc2-c2nnn[nH]2)cc1 [olmesartan] |  |  |  |  |  |  |  | Effect on IOP [11]: IOP-lowering effects; Effect on IOP [12]: IOP-lowering effects |
| readily precipitated out of solution | CCCc1nc2c(C)cc(-c3nc4ccccc4n3C)cc2n1Cc1ccc(-c2ccccc2C(=O)O)cc1 [telmisartan] |  | significantly reduced | significantly lower BP | significant decreases in IOP | significantly greater than control | 16.7 | 13.3 | Lipophilicity [13]: most lipophilic ARB; Reduction of pSmad2 fluorescence in the RGC layer compared to normal fed mice ([3]; p = 0.034): 70% |

From article PMC6084929, “Differential effects of angiotensin II type I receptor blockers on reducing intraocular pressure and TGFβ signaling in the mouse retina” (PLoS ONE, 2018)
